Assays:
Format in all cases: biochemical
[1] = biological target: T1, recombinant p66/p51 HIV-1 reverse transcriptase (Human immunodeficiency virus type 1 group M subtype B, UniProt P04585); assay: 3HdCTP incorporation assay with recombinant RT; conditions: read-out: concentration resulting in 50% inhibition of incorporation of 3HdCTP; (rI)n-dC12-18 template primer
T1 construct: recombinant p66/p51 HIV-1 reverse transcriptase; purchased Biotechnology General, Rehovot, Israel
Description: Wild type HIV-1SUM9, and multiple dideoxy nucleoside-resistant HIV-1SUM8 (Q151M mutation), HIV-1SUM12 (F77L/F116Y/Q151M) and HIV-1SUM13 (A62V/V751/F77L/F116Y/Q151M) MICs were provided by Dr. Mitsuya as described by Shirasaka et al., Proc. Natl. Acad. Sci. USA 92: 2398-2402 (1995). The synthesis and preparation of 3TC-TP were carried out as described by Schinazi et al., Antimicrob. Agents Chemother. 36: 2423-2431 (1992). The crude 3TC-5-TP was purified by FPLC using a HiLoad 26/10Q Sepharose Fast Flow™ Pharmacia chromatography column (Pharmacia, Piscataway, N.J.) and gradient of TEAE buffer (pH 7.0). The compound was characterized by UV spectroscopy, proton and phosphorous NMR, mass spectroscopy and HPLC.

[2] = tested on: plasma HIV-1 reverse transcriptase; assay: Amp-RT assay, inhibition by 3TC-TP, plasma samples of patients; conditions: for Inhibition of RT(%): 5 uM 3TC-TP
Description: The phenotypic assay used in this example was based on the analysis of the susceptibility of HIV-1 reverse transcriptase activity from plasma to inhibition by 3TC-TP.
For culture supernatant, 10 μl were directly used for the reverse transcriptase reaction. The analysis of phenotypic resistance in plasma samples was made in plasma-free virus pellets as described in the protocol set forth in FIG. 1B.
Amp-RT detects reverse transcriptase activity by using a heterologous RNA template derived from the encephalomyocarditis virus (EMCV), a complementary DNA oligoprimer, and PCR amplification of reverse transcriptase-generated EMCV cDNA. […] To determine the susceptibility of the reverse transcriptase to 3TC-TP, an additional Amp-RT reaction was made in the presence of 3TC-TP, with concentrations of 3TC-TP ranging from 0.1 to 10 μM. […] PCR amplification of reverse transcriptase products was made as follows after the addition of 200 μM of each dNTP. A volume of 50 μl of PCR buffer containing 2.5 units of Taq polymerase, 100 ng of the sense primer EMCF1, and 200 μM of each dNTP was added to the reverse transcriptase mixture.
A total of 30 EDTA-plasma samples from 15 HIV-1-infected patients from the Veteran Administration Medical Center, Decatur, Ga., were studied. The samples were collected from patients before and during anti-retroviral therapy with 3TC. The Amp-RT-based phenotypic assay was done under code with respect to date of serial bleed and reverse transcriptase genotype. One plasma specimen from a blood donor who tested antibody negative for HIV-1/2, HTLV-I/II was used as an assay negative control.

HIV-1 RT = HIV-1 RT (Human immunodeficiency virus type 1 group M subtype B, UniProt P04585); assay: Amp-RT assay, AZT-TP and other NRTI-TPs, reference viruses; parameters: The susceptibility of HIV-1 RT activity from viral isolates or plasma samples; made in house
[3] = 5 μM 3TC-TP, pretreatment samples (n=12)
[4] = sample 1E, 12 weeks, AZT/3TC, V/M184
[5] = sample 1F, 18 weeks, AZT/3TC, V184
[6] = sample 2F, 12 weeks, AZT/3TC, V184
[7] = sample 3F, 12 weeks, AZT/3TC, M/V184
[8] = sample 3G, 21 weeks, AZT/3TC, V184
[9] = sample 6B, 12 weeks, AZT/3TC, V184
[10] = sample 8B, 8 weeks, AZT/3TC, V184
[11] = sample 9F, 12 weeks, AZT/3TC, V184
[12] = sample 10A, 4 weeks, AZT/3TC, M184
[13] = sample 10C, 12 weeks, AZT/3TC, M/V184
[14] = sample 10G, 52 weeks, AZT/3TC, V184
[15] = sample 11A, 12 weeks, AZT/3TC, V/M184
[16] = sample 11C, 36 weeks, AZT/3TC, V184
[17] = sample 12E, 28 weeks, AZT/3TC, V184
[18] = sample 13A, Pre, d4T, M184, N69, R70
[19] = sample 13F, 60 weeks, d4T/3TC/IND, V184
[20] = sample 14A, 1 week, AZT/3TC, M184, D69
[21] = sample 14F, 44 weeks, IND/3TC, V184
[22] = sample 15A, Pre, AZT, M184, D69
[23] = sample 15D, 40 weeks, AZT/3TC/IND, V184
[24] = 5 μM 3TC-TP, samples with 184V only
[25] = 5 μM 3TC-TP, samples with mixtures of wild type and resistant genotypes

Nc1ccn([C@@H]2CS[C@H](COP(=O)(O)OP(=O)(O)OP(=O)(O)O)O2)c(=O)n1 [3TC-TP, 3TC-5′-triphosphate]
IC50 [1]: 1300 nM | mean reverse transcriptase inhibition [2, 3]: 98.7% | median reverse transcriptase inhibition [2, 3]: 99.8% | Inhibition of RT(%) ([2]; sample 1B, Pre, AZT/ddC, M184): 100% | Inhibition of RT(%) [2, 4]: 75.6% | Inhibition of RT(%) [2, 5]: 75.9% | Inhibition of RT(%) ([2]; sample 2B, Pre, AZT/ddC, M184): 99.7% | Inhibition of RT(%) [2, 6]: 68% | Inhibition of RT(%) ([2]; sample 3B, Pre, AZT, M184): 99.4% | Inhibition of RT(%) [2, 7]: 92.3% | Inhibition of RT(%) [2, 8]: 0% | Inhibition of RT(%) ([2]; sample 4A, Pre, AZT, M184): 99.9% | Inhibition of RT(%) ([2]; sample 5A, Pre, AZT, M184): 100% | Inhibition of RT(%) ([2]; sample 6A, Pre, None, M184): 99.9% | Inhibition of RT(%) [2, 9]: 34.7% | Inhibition of RT(%) ([2]; sample 7A, Pre, None, M/I184): 100% | Inhibition of RT(%) ([2]; sample 8A, Pre, AZT, M184): 99.9% | Inhibition of RT(%) [2, 10]: 15% | Inhibition of RT(%) ([2]; sample 9A, Pre, d4T, M184): 97.8% | Inhibition of RT(%) [2, 11]: 47% | Inhibition of RT(%) [2, 12]: 87.8% | Inhibition of RT(%) [2, 13]: 0% | Inhibition of RT(%) [2, 14]: 0% | Inhibition of RT(%) [2, 15]: 29.1% | Inhibition of RT(%) [2, 16]: 58.5% | Inhibition of RT(%) ([2]; sample 12A, Pre, AZT, M184): 96.3% | Inhibition of RT(%) [2, 17]: 70% | Inhibition of RT(%) [2, 18]: 95.9% | Inhibition of RT(%) [2, 19]: 0% | Inhibition of RT(%) [2, 20]: 94.7% | Inhibition of RT(%) [2, 21]: 0% | Inhibition of RT(%) [2, 22]: 95.5% | Inhibition of RT(%) [2, 23]: 0% | reverse transcriptase inhibition values ([2]; 5 μM 3TC-TP, samples after 1 to 60 weeks of therapy with 3TC (n=18)): less than 95% | mean inhibition [2, 24]: 30.8% | median inhibition [2, 24]: 24.9% | mean inhibition [2, 25]: 49.3% | median inhibition [2, 25]: 52.4% | RT activity With 3TC-TP (5 uM) [2, 4]: 5.1 × 10^−7 units/ml | RT activity With 3TC-TP (5 uM) [2, 5]: 3.3 × 10^−8 units/ml | RT activity With 3TC-TP (5 uM) ([2]; sample 2B, Pre, AZT/ddC, M184): 6.3 × 10^−9 units/ml | RT activity With 3TC-TP (5 uM) [2, 6]: 4.7 × 10^−7 units/ml | RT activity With 3TC-TP (5 uM) ([2]; sample 3B, Pre, AZT, M184): 1.7 × 10^−8 units/ml | RT activity With 3TC-TP (5 uM) [2, 7]: 1.2 × 10^−9 units/ml | RT activity With 3TC-TP (5 uM) [2, 8]: 1.0 × 10^−8 units/ml | RT activity With 3TC-TP (5 uM) ([2]; sample 4A, Pre, AZT, M184): 1.2 × 10^−10 units/ml | RT activity With 3TC-TP (5 uM) ([2]; sample 6A, Pre, None, M184): 3.6 × 10^−8 units/ml | RT activity With 3TC-TP (5 uM) [2, 9]: 1.5 × 10^−5 units/ml | RT activity With 3TC-TP (5 uM) ([2]; sample 8A, Pre, AZT, M184): 5.7 × 10^−8 units/ml | RT activity With 3TC-TP (5 uM) [2, 10]: 4.3 × 10^−5 units/ml | RT activity With 3TC-TP (5 uM) ([2]; sample 9A, Pre, d4T, M184): 6.3 × 10^−8 units/ml | RT activity With 3TC-TP (5 uM) [2, 11]: 1.1 × 10^−6 units/ml | RT activity With 3TC-TP (5 uM) [2, 12]: 9.1 × 10^−6 units/ml | RT activity With 3TC-TP (5 uM) [2, 13]: 1.9 × 10^−7 units/ml | RT activity With 3TC-TP (5 uM) [2, 14]: 3.5 × 10^−5 units/ml | RT activity With 3TC-TP (5 uM) [2, 15]: 1.3 × 10^−7 units/ml | RT activity With 3TC-TP (5 uM) [2, 16]: 7.0 × 10^−8 units/ml | RT activity With 3TC-TP (5 uM) ([2]; sample 12A, Pre, AZT, M184): 9.2 × 10^−7 units/ml | RT activity With 3TC-TP (5 uM) [2, 17]: 5.1 × 10^−7 units/ml | RT activity With 3TC-TP (5 uM) [2, 18]: 6.2 × 10^−8 units/ml | RT activity With 3TC-TP (5 uM) [2, 19]: 7.4 × 10^−5 units/ml | RT activity With 3TC-TP (5 uM) [2, 20]: 1.3 × 10^−8 units/ml | RT activity With 3TC-TP (5 uM) [2, 21]: 5.1 × 10^−9 units/ml | RT activity With 3TC-TP (5 uM) [2, 22]: 4.0 × 10^−6 units/ml | RT activity With 3TC-TP (5 uM) [2, 23]: 2.4 × 10^−10 units/ml

Cc1cn([C@H]2C[C@H](N=[N+]=[N-])[C@@H](COP(=O)(O)OP(=O)(O)OP(=O)(O)O)O2)c(=O)[nH]c1=O [AZT-TP, AZT-triphosphate]
% inhibition (SEM) (HIV-1 RT; 1 μM AZT-TP, HIV-1HXB2, WT): 98 (±2) % | IC50 (HIV-1 RT; WT HIV-1HXB2): 500 nM | IC90 (HIV-1 RT; WT HIV-1HXB2): 900 nM
